# ChEMBL document CHEMBL1152169, “Synthesis and structure-activity relationships of selective norepinephrine reuptake inhibitors (sNRI) with improved pharmaceutical characteristics” (Bioorg Med Chem Lett, 2008)
# Active and inactive are the calls of the source. The calls are words filed in the database; no cut-off is given here.
# Target: Sodium-dependent dopamine transporter (Homo sapiens, UniProt Q01959)
# Assay: Inhibition of dopamine uptake at human dopamine transporter
row,SMILES,Activity
1,CCNCC1(O)Cc2ccccc2C1Oc1ccccc1C (racemic),inactive
2,CNC[C@]1(O)Cc2ccccc2[C@@H]1Oc1cc(F)ccc1C,inactive
3,CNC[C@@H]1Cc2ccccc2[C@@H]1Oc1ccccc1C,inactive
4,CNC[C@]1(O)Cc2ccccc2[C@@H]1Oc1c(C)cccc1F,inactive
5,Cc1ccccc1O[C@H]1c2ccccc2C[C@@]1(O)CN,inactive
6,CNCC1(O)Cc2ccccc2C1Cc1ccccc1C (racemic),inactive
7,CNC[C@]1(O)Cc2ccccc2[C@@H]1Oc1ccccc1OC,inactive
8,CNC[C@@]1(O)Cc2ccccc2[C@H]1Oc1ccccc1C,inactive
9,CNC[C@]1(O)Cc2ccccc2[C@@H]1Oc1ccc(O)cc1C,inactive
10,CNC[C@]1(O)Cc2ccccc2[C@@H]1Oc1ccc(C)cc1C,inactive
11,CNC[C@]1(O)Cc2ccccc2[C@@H]1Oc1cccc(C)c1C,inactive
12,Cc1ccccc1OC1c2ccccc2CC1(O)CNCCO (racemic),inactive
13,CNC[C@]1(O)Cc2ccccc2[C@@H]1Oc1ccccc1SC,inactive
14,CNC[C@]1(O)Cc2ccccc2[C@@H]1Oc1ccc(F)cc1C,inactive
15,Cc1ccccc1OC1c2ccccc2CC1(O)CN (racemic),inactive
16,CNC[C@]1(OC)Cc2ccccc2[C@@H]1Oc1ccccc1C,inactive
17,CNC[C@]1(O)Cc2ccccc2[C@@H]1Oc1cccc(F)c1C,inactive
18,CNC[C@]1(O)Cc2ccccc2[C@@H]1Oc1ccccc1CO,inactive
19,CNC[C@]1(O)Cc2ccccc2[C@@H]1Oc1ccccc1F,inactive
20,CNCC1(O)Cc2ccccc2C1Oc1ccccc1C (racemic),inactive
21,CNCC1(O)Cc2ccccc2C1Sc1ccccc1C (racemic),inactive
22,CNC[C@]1(O)Cc2ccccc2[C@@H]1Oc1ccccc1Cl,inactive
23,CNC[C@]1(O)Cc2ccccc2[C@@H]1Oc1ccccc1-c1cccc2ccccc12,inactive
24,CNC[C@]1(O)Cc2ccccc2[C@@H]1Oc1cccc(O)c1C,inactive
25,CNC[C@]1(O)Cc2ccccc2[C@@H]1Oc1ccccc1C,inactive
26,CCc1ccccc1O[C@H]1c2ccccc2C[C@@]1(O)CNC,inactive
